This is an account of results in US20040176431A1, “Antiproliferative 2-(sulfo-phenyl)-aminothiazole derivatives and pharmaceutical compositions, and methods for their use” (Pfizer, Inc., priority 2003, published 2004).

The target in the experiment is T1, CDK4/cyclin D3 (Homo sapiens, UniProt P11802).
T1 construct: made in house; host or cells: insect cells (baculovirus co-infection)
Nature of the experiment: Inhibition of CDK4/Cyclin D retinoblastoma kinase activity. The experiment is classed as biochemical. The settings on record: for inhibition at 0.1 µM: test compound at 0.1 μM, read-out: % Inhib CDK4/D @ 0.1 μM; for inhibition at 1 µM: test compound at 1 μM (head line shifted: 'mM' printed beside 'Structure'), read-out: % Inhib CDK4/D @ 1 μM; for inhibition at 0.03 µM: test compound at 0.03 (unit cell empty, head line shifted; μM), read-out: % Inhib CDK4/D @ 0.03. The protocol:
Cyclin-dependent kinase activity was measured by quantifying the enzyme-catalyzed, time-dependent incorporation of radioactive phosphate from [^32P]ATP or [^33P]ATP into a protein substrate. Unless noted otherwise, assays were performed in 96-well plates in a total volume of 50 μL, in the presence of 10 mM HEPES (N-[2-hydroxyethyl]piperazine-N′-[2-ethanesulfonic acid]) (pH 7.4), 10 mM MgCl2, 25 μM adenosine triphosphate (ATP), 1 mg/mL ovalbumin, 5 μg/mL leupeptin, 1 mM dithiothreitol, 10 mM β-glycerophosphate, 0.1 mM sodium vanadate, 1 mM sodium fluoride, 2.5 mM ethylene glycol-bis(β-aminoethyl ether)-N,N,N′N′-tetraacetic acid (EGTA), 2% (v/v) dimethylsulfoxide, and 0.03-0.4 μCi [^32/33P]ATP per reaction. Reactions were initiated with enzyme, incubated at 30° C., and terminated after 20 minutes by the addition of ethylenediaminetetraacetic acid (EDTA) to 250 mM. The phosphorylated substrate was then captured on a nitrocellulose or phosphocellulose membrane using a 96-well filtration manifold, and unincorporated radioactivity was removed by repeated washing with 0.85% phosphoric acid. Radioactivity was quantified by exposing the dried membranes to a phosphorimager.
Inhibition was measured relative to control wells that contained all reaction components including 2% (v/v) DMSO but no compound, after subtraction of background radioactivity measured in the absence of enzyme. Apparent Ki values of discrete compounds were measured by assaying enzyme activity in the presence of different inhibitor compound concentrations and subtracting the background radioactivity measured in the absence of enzyme. The kinetic parameters (kcat, Km for ATP) were measured for each enzyme under the usual assay conditions by determining the dependence of initial rates on ATP concentration. Inhibition data were fit to an equation for competitive inhibition using Kaleidagraph (Synergy Software), or were fit to an equation for competitive tight-binding inhibition using the software KineTic (BioKin, Ltd.).
A complex of human CDK4 and genetically truncated (1-264) cyclin D3 was purified using traditional biochemical chromatographic techniques from insect cells that had been co-infected with the corresponding baculovirus expression vectors (see e.g., Meijer and Kim, “Chemical Inhibitors of Cyclin-Dependent Kinases,” Methods in Enzymol., 283, 113-128 (1997)). The enzyme complex (5 nM) was assayed with 0.3-0.5 μg of purified recombinant retinoblastoma protein fragment (Rb) as a substrate. The engineered Rb fragment (residues 386-928 of the native retinoblastoma protein; 62.3 kDa) contains the majority of the phosphorylation sites found in the native 106-kDa protein, as well as a tag of six histidine residues for ease of purification. Phosphorylated Rb substrate was captured by microfiltration on a nitrocellulose membrane and quantified using a phosphorimager as described above. For measurement of tight-binding inhibitors, the assay duration was extended to 60 minutes, during which the time-dependence of product formation was linear and initial rate conditions were met.

T1 sequence (P11802 whole entry): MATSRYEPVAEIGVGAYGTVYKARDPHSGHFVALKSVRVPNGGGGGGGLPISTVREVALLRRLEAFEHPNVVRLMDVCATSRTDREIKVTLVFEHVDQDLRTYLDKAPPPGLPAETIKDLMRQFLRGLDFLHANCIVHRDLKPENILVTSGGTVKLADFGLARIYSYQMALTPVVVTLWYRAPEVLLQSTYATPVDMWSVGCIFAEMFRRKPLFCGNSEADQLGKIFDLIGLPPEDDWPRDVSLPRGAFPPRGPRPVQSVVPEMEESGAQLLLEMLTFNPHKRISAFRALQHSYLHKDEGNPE
T1 sequence (P30281 1-264 partner limits assumed): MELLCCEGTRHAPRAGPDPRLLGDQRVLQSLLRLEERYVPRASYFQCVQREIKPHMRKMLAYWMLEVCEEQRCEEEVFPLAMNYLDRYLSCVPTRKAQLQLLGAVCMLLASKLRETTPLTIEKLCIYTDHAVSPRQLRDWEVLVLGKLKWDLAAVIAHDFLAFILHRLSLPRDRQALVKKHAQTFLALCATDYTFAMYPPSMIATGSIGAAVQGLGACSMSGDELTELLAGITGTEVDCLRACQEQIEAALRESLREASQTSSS

For `CCC(CC)CSc1ccc(Nc2nc(N)c(C(=O)c3c(Cl)cccc3Cl)s2)cc1` [DD(36)], the inhibition at 0.1 µM is 18%, the inhibition at 1 µM amounted to 49.6% and the inhibition at 0.03 µM worked out at 9%.

Take `CC(=O)OCCSc1ccc(Nc2nc(N)c(C(=O)c3c(Cl)cccc3Cl)s2)cc1` [DD(37)]: the inhibition at 0.1 µM was 30%, the inhibition at 1 µM was 74.3% and the inhibition at 0.03 µM is 13%.

For the compound `CC(C)OC(=O)CCSc1ccc(Nc2nc(N)c(C(=O)c3c(Cl)cccc3Cl)s2)cc1` [DD(38)], the inhibition at 0.1 µM came out at 32%, the inhibition at 1 µM was 57.8% and the inhibition at 0.03 µM was determined as 6.5%.

Take `Nc1nc(Nc2ccc(SCCN3CCOCC3)cc2)sc1C(=O)c1c(Cl)cccc1Cl` [DD(39)]: the inhibition at 0.1 µM worked out at 18%, the inhibition at 1 µM amounted to 68.4% and the inhibition at 0.03 µM was 0.2%.

`CC(C)(CO)CSc1ccc(Nc2nc(N)c(C(=O)c3c(Cl)cccc3Cl)s2)cc1` [DD(40)]: the inhibition at 0.1 µM turned out to be 23%, the inhibition at 1 µM is 50.3% and the inhibition at 0.03 µM was -1.2%.

For `CCN(CC)C(=O)CSc1cccc(Nc2nc(N)c(C(=O)c3c(Cl)cccc3Cl)s2)c1` [DD(41)], the inhibition at 0.1 µM was 33%, the inhibition at 1 µM worked out at 70.3% and the inhibition at 0.03 µM is 28%.

For `Cc1noc(C)c1CSc1cccc(Nc2nc(N)c(C(=O)c3c(Cl)cccc3Cl)s2)c1` [DD(42)], the inhibition at 0.1 µM was 41%, the inhibition at 1 µM was found to be 63.7% and the inhibition at 0.03 µM was found to be 29%.

As to `CC(CSc1cccc(Nc2nc(N)c(C(=O)c3c(Cl)cccc3Cl)s2)c1)CN(C)C` (stereo not drawn) [DD(43)], the inhibition at 0.1 µM turned out to be 16%, the inhibition at 1 µM worked out at 71.3% and the inhibition at 0.03 µM amounted to 25%.

For the compound `COC(=O)/C=C/CSc1cccc(Nc2nc(N)c(C(=O)c3c(Cl)cccc3Cl)s2)c1` [DD(44)], the inhibition at 0.1 µM was determined as 31%, the inhibition at 1 µM turned out to be 46% and the inhibition at 0.03 µM amounted to 23%.

As to `Nc1nc(Nc2cccc(SCCCO)c2)sc1C(=O)c1c(Cl)cccc1Cl` [DD(45)], the inhibition at 0.1 µM came out at 54%, the inhibition at 1 µM worked out at 79.6% and the inhibition at 0.03 µM worked out at 32%.

As for `C=CCCSc1cccc(Nc2nc(N)c(C(=O)c3c(Cl)cccc3Cl)s2)c1` [DD(46)], the inhibition at 0.1 µM stood at 39%, the inhibition at 1 µM was 50.7% and the inhibition at 0.03 µM came to 18%.

With `Nc1nc(Nc2cccc(SCCN3CCCC3)c2)sc1C(=O)c1c(Cl)cccc1Cl` [DD(47)], the inhibition at 0.1 µM was 7.3%, the inhibition at 1 µM amounted to 62.9% and the inhibition at 0.03 µM stood at 20%.

Regarding `Nc1nc(Nc2cccc(SCc3ncon3)c2)sc1C(=O)c1c(Cl)cccc1Cl` [DD(48)], the inhibition at 0.1 µM was 36%, the inhibition at 1 µM came to 52.2% and the inhibition at 0.03 µM was 26%.

On to `Nc1nc(Nc2cccc(SCC3CNC(=O)O3)c2)sc1C(=O)c1c(Cl)cccc1Cl` (stereo not drawn) [DD(49)], for which the inhibition at 0.1 µM was 19%, the inhibition at 1 µM is 54.2% and the inhibition at 0.03 µM turned out to be 12%.

`CN(C)CCCSc1cccc(Nc2nc(N)c(C(=O)c3c(Cl)cccc3Cl)s2)c1` [DD(50)]: the inhibition at 0.1 µM turned out to be 10%, the inhibition at 1 µM came to 80.3% and the inhibition at 0.03 µM was 24%.

Regarding `Nc1nc(Nc2cccc(SCCN3CCCCC3)c2)sc1C(=O)c1c(Cl)cccc1Cl` [DD(51)], the inhibition at 0.1 µM is 30%, the inhibition at 1 µM stood at 75.6% and the inhibition at 0.03 µM was found to be 4.1%.

Consider `Nc1nc(Nc2cccc(SCC3CO3)c2)sc1C(=O)c1c(Cl)cccc1Cl` (stereo not drawn) [DD(52)], for which the inhibition at 0.1 µM turned out to be 34%, the inhibition at 1 µM worked out at 74.9% and the inhibition at 0.03 µM worked out at 15%.

On to `CC(C)CCSc1cccc(Nc2nc(N)c(C(=O)c3c(Cl)cccc3Cl)s2)c1` [DD(53)], for which the inhibition at 0.1 µM amounted to 14%, the inhibition at 1 µM was 31.5% and the inhibition at 0.03 µM is 5.6%.

Consider `COCCSc1cccc(Nc2nc(N)c(C(=O)c3c(Cl)cccc3Cl)s2)c1` [DD(54)], for which the inhibition at 0.1 µM amounted to 34%, the inhibition at 1 µM is 75.2% and the inhibition at 0.03 µM amounted to 20%.

As to `Nc1nc(Nc2cccc(SCC(=O)Nc3ccccc3)c2)sc1C(=O)c1c(Cl)cccc1Cl` [DD(55)], the inhibition at 0.1 µM worked out at 24%, the inhibition at 1 µM is 63.4% and the inhibition at 0.03 µM worked out at 17%.

As to `Nc1nc(Nc2cccc(SCC3CC3)c2)sc1C(=O)c1c(Cl)cccc1Cl` [DD(56)], the inhibition at 0.1 µM turned out to be 17%, the inhibition at 1 µM worked out at 55.4% and the inhibition at 0.03 µM was 2.9%.

For `COc1cccc(CSc2cccc(Nc3nc(N)c(C(=O)c4c(Cl)cccc4Cl)s3)c2)c1` [DD(57)], the inhibition at 0.1 µM was -9%, the inhibition at 1 µM was found to be 24.6% and the inhibition at 0.03 µM is -14%.

Take `Nc1nc(Nc2cccc(SCC3CCCO3)c2)sc1C(=O)c1c(Cl)cccc1Cl` (stereo not drawn) [DD(58)]: the inhibition at 0.1 µM came to 23%, the inhibition at 1 µM stood at 72.7% and the inhibition at 0.03 µM turned out to be 11%.

As to `CN1CCCC1CCSc1cccc(Nc2nc(N)c(C(=O)c3c(Cl)cccc3Cl)s2)c1` (stereo not drawn) [DD(59)], the inhibition at 0.1 µM is 37%, the inhibition at 1 µM came to 57.4% and the inhibition at 0.03 µM was determined as 20%.

As for `CC1(CSc2cccc(Nc3nc(N)c(C(=O)c4c(Cl)cccc4Cl)s3)c2)CO1` (stereo not drawn) [DD(60)], the inhibition at 0.1 µM stood at 39%, the inhibition at 1 µM is 80.1% and the inhibition at 0.03 µM stood at 22%.

Take `NC(=O)CSc1cccc(Nc2nc(N)c(C(=O)c3c(Cl)cccc3Cl)s2)c1` [DD(61)]: the inhibition at 0.1 µM is 57%, the inhibition at 1 µM turned out to be 81.5% and the inhibition at 0.03 µM came out at 20%.

As to `CCOC(=O)CCSc1cccc(Nc2nc(N)c(C(=O)c3c(Cl)cccc3Cl)s2)c1` [DD(62)], the inhibition at 0.1 µM came to 27%, the inhibition at 1 µM is 46.4% and the inhibition at 0.03 µM amounted to 6.4%.

With `CC(C)OC(=O)CSc1cccc(Nc2nc(N)c(C(=O)c3c(Cl)cccc3Cl)s2)c1` [DD(63)], the inhibition at 0.1 µM stood at 29%, the inhibition at 1 µM was determined as 46.6% and the inhibition at 0.03 µM was -3.8%.

As for `CC(C)=CCSc1cccc(Nc2nc(N)c(C(=O)c3c(Cl)cccc3Cl)s2)c1` [DD(64)], the inhibition at 0.1 µM worked out at 27%, the inhibition at 1 µM was 22.1% and the inhibition at 0.03 µM is -11%.

For `CCCSc1cccc(Nc2nc(N)c(C(=O)c3c(Cl)cccc3Cl)s2)c1` [DD(65)], the inhibition at 0.1 µM worked out at 7%, the inhibition at 1 µM was 51.1% and the inhibition at 0.03 µM stood at 6.5%.

As for `COC(=O)CSc1cccc(Nc2nc(N)c(C(=O)c3c(Cl)cccc3Cl)s2)c1` [DD(66)], the inhibition at 0.1 µM was found to be 23%, the inhibition at 1 µM worked out at 77.1% and the inhibition at 0.03 µM turned out to be 18%.

On to `CN1CCCC(CSc2cccc(Nc3nc(N)c(C(=O)c4c(Cl)cccc4Cl)s3)c2)C1` (stereo not drawn) [DD(67)], for which the inhibition at 0.1 µM worked out at 14%, the inhibition at 1 µM came out at 49.1% and the inhibition at 0.03 µM amounted to 4.3%.

As to `NC(=O)CCSc1cccc(Nc2nc(N)c(C(=O)c3c(Cl)cccc3Cl)s2)c1` [DD(68)], the inhibition at 0.1 µM turned out to be 52%, the inhibition at 1 µM came to 77.4% and the inhibition at 0.03 µM is 25%.

Take `Nc1nc(Nc2cccc(SCCO)c2)sc1C(=O)c1c(Cl)cccc1Cl` [DD(69)]: the inhibition at 0.1 µM stood at 41%, the inhibition at 1 µM was determined as 78.4% and the inhibition at 0.03 µM was 16%.

On to `CC(C)CCCSc1cccc(Nc2nc(N)c(C(=O)c3c(Cl)cccc3Cl)s2)c1` [DD(70)], for which the inhibition at 0.1 µM was determined as 16%, the inhibition at 1 µM amounted to 5.3% and the inhibition at 0.03 µM was determined as 93%.

On to `CC(C)CCOC(=O)CSc1cccc(Nc2nc(N)c(C(=O)c3c(Cl)cccc3Cl)s2)c1` [DD(71)], for which the inhibition at 0.1 µM is 6.9%, the inhibition at 1 µM turned out to be 36% and the inhibition at 0.03 µM was 77%.
